Measurements as given in ChEMBL document CHEMBL1944615, “Synthesis and biological evaluation of deoxy-hematoxylin derivatives as a novel class of anti-HIV-1 agents” (Bioorg Med Chem Lett, 2012).
pIC50: −log10 of the molar value.

Tests used:
[1] = tested on: Human immunodeficiency virus 1; experiment: Antiviral activity against HIV1 NF-462 expressing wild-type Vpr infected in human 293T cells containing 1 ng of viral p24 antigen after 8 days by ELISA relative to hematoxylin; format: functional
[2] = tested on: Human immunodeficiency virus 1; experiment: Antiviral activity against HIV1 NL432 infected in human ConA and IL2-stimulated PBMC assessed as inhibition of viral replication by reverse transcriptase assay; format: functional, organism-based; conditions: for pIC50: Human immunodeficiency virus 1, NL432, read-out: IC50
[3] = Cytotoxicity against human MOLT4 cells expressing CD4+ after 2 days by MTT assay; format: cell-based, MOLT-4
[4] = Inhibition of HIV1 VPR/human importin-alpha interaction in human HeLa cells assessed as inhibition of nuclear import of preintegral complex after 15 mins by confocal laser scanning microscopic analysis; format: cell-based
[5] = tested on: Human immunodeficiency virus 1; experiment: Antiviral activity against HIV1 NF-462 expressing wild-type Vpr infected in human 293T cells containing 4 ng of viral p24 antigen after 8 days by ELISA relative to hematoxylin; format: functional
[6] = tested on: Human immunodeficiency virus 1; experiment: Antiviral activity against HIV1 NF-462 expressing wild-type Vpr infected in human 293T cells containing 4 ng of viral p24 antigen after 8 days by ELISA; format: functional, organism-based; conditions: for pIC50: Human immunodeficiency virus 1, NF-462, HEK-293T, 192 h, read-out: IC50
[7] = tested on: Human immunodeficiency virus 1; experiment: Antiviral activity against HIV1 NL432 infected in human TZM-Bl cells assessed as inhibition of viral replication after 2 days by luciferase reporter gene analysis; format: functional, organism-based; conditions: for pIC50: Human immunodeficiency virus 1, NL432, TZM-bl, 48 h, read-out: IC50; for IC50: tzm-bl

What does the source list for `CC1(C)Oc2cc3c(cc2O1)[C@@H]1c2cccc(O)c2OC[C@]1(O)C3`?
Ratio IC50 [1]: 2; pIC50 [2]: 4.52; CC50 at 48 h [3]: > 80000 nM; pIC50 [4]: 6.30; Ratio IC50 [5]: 10; pIC50 [6]: 7.00; pIC50 [7]: 4.61

With `Oc1cc2c(cc1O)[C@@H]1c3cccc(O)c3OC[C@]1(O)C2` as the compound, how does the IC50 [2] read?
The IC50 was “ND(toxic)”.

What about the CC50 at 48 h [3] of the same compound?
Its CC50 at 48 h is 32000 nM.

What about the pIC50 [4] of the same compound?
The pIC50 was 6.05.

What about the pIC50 [6] of the same compound?
The pIC50 was 6.40.

And the IC50 [7]?
Its IC50 is “ND(toxic)”.

Which IC50 [2] does the source give for `Oc1cc2c(cc1O)[C@@H]1c3ccc(O)c(O)c3OC[C@]1(O)C2` [HEMATOXYLIN] here?
Its IC50 is “ND(toxic)”.

What about the CC50 at 48 h [3] of the same compound?
The CC50 at 48 h was 40000 nM.

And the pIC50 [4]?
The pIC50 was 5.89.

And the pIC50 [6]?
The pIC50 was greater than 6.00.

And the pIC50 [7]?
The pIC50 was 4.00.

What does the source list for `O[C@]12COc3ccccc3[C@H]1c1ccccc1C2`?
CC50 at 48 h [3]: > 100000 nM; pIC50 [4]: 5.57; IC50 [7]: Not Active

For `CC1(C)Oc2cc3c(cc2O1)[C@@H]1c2cccc(OCc4ccccc4)c2OC[C@]1(O)C3`, which CC50 at 48 h [3] is on record?
The CC50 at 48 h was greater than 80000 nM.

And the pIC50 [4]?
The pIC50 was 6.10.

What about the IC50 ([6]; 293t) of the same compound?
The IC50 was “Not Active”.

What about the IC50 [7] of the same compound?
The IC50 was “Not Active”.

What does the source list for `Oc1cc2c(cc1O)[C@@H]1c3ccccc3OC[C@]1(O)C2`?
CC50 at 48 h [3]: 1900 nM; pIC50 [4]: 5.72; IC50 [7]: ND(toxic)

With `Oc1ccc2c(c1)C[C@@]1(O)COc3ccccc3[C@@H]21` as the compound, how does the pIC50 [2] read?
The pIC50 was 4.60.

And the CC50 at 48 h [3]?
Its CC50 at 48 h is 82000 nM.

What about the pIC50 [4] of the same compound?
The pIC50 was 6.22.

And the pIC50 [6]?
The pIC50 was 6.05.

And the pIC50 [7]?
The pIC50 was 4.17.
